Laboratory results: ChEMBL document CHEMBL5465560, “Selectivity Literature for EUbOPEN Chemogenomic Library” (2024)
Values belong to the molecule of their own block, whether it stands above or below them.

Legend:
[1] = molecular target: AP2-associated protein kinase 1 (Homo sapiens, UniProt Q2M2I8); assay: Selectivity interaction (KinomeScan (DiscoverX)) EUB0001868a AAK1; conditions: at 1 µM
[2] = molecular target: T1, Cyclin-dependent kinase 11A (Homo sapiens) (UniProt Q9UQ88); assay: Selectivity interaction (ActivX KiNativ screen (kinase selectivity in THP-1 cell lysates)) EUB0000639a CDK11A; type: subcellular; conditions: lysate, at 0.04 µM
T1 sequence (whole entry): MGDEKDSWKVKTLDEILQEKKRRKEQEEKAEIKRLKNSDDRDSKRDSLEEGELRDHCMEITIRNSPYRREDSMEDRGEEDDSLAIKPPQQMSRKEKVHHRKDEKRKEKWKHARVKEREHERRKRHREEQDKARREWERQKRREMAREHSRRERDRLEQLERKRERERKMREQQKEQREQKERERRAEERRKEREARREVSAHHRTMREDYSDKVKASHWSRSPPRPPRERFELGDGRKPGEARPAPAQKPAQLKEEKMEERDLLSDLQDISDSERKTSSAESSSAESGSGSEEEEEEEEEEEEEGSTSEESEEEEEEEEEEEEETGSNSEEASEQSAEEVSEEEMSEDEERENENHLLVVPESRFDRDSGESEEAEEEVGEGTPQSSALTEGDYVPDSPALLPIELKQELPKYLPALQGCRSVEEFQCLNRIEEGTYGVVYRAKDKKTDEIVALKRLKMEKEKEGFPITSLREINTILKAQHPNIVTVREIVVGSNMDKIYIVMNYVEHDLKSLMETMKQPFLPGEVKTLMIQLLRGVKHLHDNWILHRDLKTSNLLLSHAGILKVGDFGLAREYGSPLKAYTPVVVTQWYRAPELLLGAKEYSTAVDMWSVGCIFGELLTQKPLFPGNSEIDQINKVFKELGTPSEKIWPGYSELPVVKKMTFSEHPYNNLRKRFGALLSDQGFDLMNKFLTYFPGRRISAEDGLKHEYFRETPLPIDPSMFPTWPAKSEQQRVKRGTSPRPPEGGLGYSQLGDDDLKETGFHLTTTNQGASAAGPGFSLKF

[3] = molecular target: Tyrosine-protein kinase Srms (Homo sapiens) (UniProt Q9H3Y6); assay: Selectivity interaction (Kinase panel (Invitrogen)) EUB0000639a SRMS; conditions: at 200 nM
Chain of Tyrosine-protein kinase Srms (Homo sapiens) (Q9H3Y6 whole entry): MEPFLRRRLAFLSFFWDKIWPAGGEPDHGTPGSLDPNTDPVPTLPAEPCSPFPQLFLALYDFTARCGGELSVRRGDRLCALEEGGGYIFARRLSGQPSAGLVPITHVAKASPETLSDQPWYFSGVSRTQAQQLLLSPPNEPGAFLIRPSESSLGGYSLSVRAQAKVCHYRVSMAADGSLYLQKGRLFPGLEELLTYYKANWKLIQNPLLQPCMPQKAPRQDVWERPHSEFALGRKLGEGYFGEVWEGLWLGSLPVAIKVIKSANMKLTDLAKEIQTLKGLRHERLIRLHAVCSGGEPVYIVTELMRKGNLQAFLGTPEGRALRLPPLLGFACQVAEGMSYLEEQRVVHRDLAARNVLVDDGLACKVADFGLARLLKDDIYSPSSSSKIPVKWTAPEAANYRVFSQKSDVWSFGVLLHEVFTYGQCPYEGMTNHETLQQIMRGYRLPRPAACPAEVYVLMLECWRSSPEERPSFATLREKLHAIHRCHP

[4] = molecular target: Protein kinase C gamma type (Homo sapiens) (UniProt P05129); assay: Selectivity interaction (Millipore kinase profiler) EUB0000124b PRKCG; conditions: at 10 µM
[5] = molecular target: Serine/threonine-protein kinase MRCK gamma (Homo sapiens) (UniProt Q6DT37); assay: Selectivity interaction (KinomeScan (DiscoverX)) EUB0001079a CDC42BPG; conditions: at 1 µM
Chain of Serine/threonine-protein kinase MRCK gamma (Homo sapiens) (Q6DT37 whole entry, canonical isoform): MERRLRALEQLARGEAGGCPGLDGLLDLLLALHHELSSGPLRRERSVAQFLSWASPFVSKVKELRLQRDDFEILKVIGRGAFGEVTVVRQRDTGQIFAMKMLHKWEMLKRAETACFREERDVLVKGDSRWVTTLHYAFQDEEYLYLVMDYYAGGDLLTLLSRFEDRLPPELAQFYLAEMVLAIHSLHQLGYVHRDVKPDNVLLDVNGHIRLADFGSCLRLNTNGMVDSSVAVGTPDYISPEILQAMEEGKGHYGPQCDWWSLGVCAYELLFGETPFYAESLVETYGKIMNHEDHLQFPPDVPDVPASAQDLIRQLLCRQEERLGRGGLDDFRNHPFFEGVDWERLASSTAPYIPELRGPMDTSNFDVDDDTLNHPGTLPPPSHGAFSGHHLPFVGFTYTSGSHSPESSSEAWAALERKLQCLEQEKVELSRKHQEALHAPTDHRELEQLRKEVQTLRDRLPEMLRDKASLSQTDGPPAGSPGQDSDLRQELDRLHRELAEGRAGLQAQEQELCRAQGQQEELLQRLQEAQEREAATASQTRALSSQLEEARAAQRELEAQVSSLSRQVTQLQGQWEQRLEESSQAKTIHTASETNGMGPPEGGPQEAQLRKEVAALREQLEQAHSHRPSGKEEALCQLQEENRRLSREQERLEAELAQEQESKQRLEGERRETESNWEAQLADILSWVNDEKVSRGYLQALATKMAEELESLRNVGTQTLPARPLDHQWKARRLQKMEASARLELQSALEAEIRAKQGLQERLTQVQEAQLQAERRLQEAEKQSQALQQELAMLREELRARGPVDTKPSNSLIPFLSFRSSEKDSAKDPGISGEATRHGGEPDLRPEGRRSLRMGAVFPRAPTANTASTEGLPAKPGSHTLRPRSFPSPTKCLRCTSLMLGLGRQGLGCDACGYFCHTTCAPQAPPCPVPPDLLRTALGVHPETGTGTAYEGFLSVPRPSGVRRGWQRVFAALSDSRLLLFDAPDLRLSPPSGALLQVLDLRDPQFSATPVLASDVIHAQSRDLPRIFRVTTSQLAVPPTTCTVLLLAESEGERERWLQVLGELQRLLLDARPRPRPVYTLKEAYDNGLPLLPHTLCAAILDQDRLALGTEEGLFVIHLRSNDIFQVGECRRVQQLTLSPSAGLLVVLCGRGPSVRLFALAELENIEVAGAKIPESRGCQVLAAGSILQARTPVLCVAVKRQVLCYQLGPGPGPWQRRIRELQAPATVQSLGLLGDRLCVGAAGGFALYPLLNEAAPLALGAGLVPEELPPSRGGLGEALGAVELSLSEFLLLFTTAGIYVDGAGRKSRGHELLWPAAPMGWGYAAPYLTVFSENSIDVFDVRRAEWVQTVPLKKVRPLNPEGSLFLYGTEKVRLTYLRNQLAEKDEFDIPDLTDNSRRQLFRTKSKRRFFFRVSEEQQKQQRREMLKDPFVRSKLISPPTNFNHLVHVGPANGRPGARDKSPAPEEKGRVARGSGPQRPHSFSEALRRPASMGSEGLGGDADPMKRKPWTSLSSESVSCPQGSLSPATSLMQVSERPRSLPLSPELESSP

[6] = molecular target: T2, Casein kinase I isoform alpha-like (Homo sapiens) (UniProt Q8N752); assay: Selectivity interaction (KinomeScan (DiscoverX)) EUB0001079a CSNK1A1L; conditions: at 1 µM
T2 sequence (whole entry): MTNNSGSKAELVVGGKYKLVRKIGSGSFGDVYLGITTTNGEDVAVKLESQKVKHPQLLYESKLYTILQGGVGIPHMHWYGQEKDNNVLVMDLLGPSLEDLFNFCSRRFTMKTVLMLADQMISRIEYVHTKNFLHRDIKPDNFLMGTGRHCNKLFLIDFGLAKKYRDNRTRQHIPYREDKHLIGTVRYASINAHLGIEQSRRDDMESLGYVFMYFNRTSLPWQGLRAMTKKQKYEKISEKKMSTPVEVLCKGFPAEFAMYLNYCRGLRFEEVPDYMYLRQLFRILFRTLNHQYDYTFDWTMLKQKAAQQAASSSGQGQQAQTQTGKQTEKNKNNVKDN

[7] = molecular target: T3, Discoidin domain-containing receptor 2 (Homo sapiens) (UniProt Q16832); conditions: at 10 µM
T3 sequence (whole entry): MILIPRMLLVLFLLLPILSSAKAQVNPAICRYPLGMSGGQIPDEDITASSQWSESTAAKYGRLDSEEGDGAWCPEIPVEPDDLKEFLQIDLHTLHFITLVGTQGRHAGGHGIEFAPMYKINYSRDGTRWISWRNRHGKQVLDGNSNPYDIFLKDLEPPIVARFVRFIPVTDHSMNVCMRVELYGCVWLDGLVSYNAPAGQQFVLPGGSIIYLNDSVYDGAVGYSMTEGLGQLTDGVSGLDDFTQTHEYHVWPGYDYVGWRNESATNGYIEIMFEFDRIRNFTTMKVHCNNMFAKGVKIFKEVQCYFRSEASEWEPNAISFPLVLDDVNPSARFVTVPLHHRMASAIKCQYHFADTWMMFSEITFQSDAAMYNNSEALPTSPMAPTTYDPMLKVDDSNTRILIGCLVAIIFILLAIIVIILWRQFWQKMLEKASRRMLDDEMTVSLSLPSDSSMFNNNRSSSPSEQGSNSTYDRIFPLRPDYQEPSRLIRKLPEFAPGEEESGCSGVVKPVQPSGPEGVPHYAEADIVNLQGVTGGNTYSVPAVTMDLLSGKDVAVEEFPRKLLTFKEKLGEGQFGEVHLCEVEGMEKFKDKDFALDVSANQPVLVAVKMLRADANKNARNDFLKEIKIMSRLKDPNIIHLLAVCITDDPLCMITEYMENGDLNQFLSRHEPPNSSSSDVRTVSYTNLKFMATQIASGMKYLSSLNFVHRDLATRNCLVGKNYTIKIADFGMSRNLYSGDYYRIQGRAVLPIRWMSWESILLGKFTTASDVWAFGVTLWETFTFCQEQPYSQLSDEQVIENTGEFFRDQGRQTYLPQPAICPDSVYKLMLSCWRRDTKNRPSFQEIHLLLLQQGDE

[8] = molecular target: Serine/threonine-protein kinase SBK1 (Homo sapiens) (UniProt Q52WX2); assay: Selectivity interaction (KinomeScan (DiscoverX)) EUB0000618a SBK1; conditions: at 10 µM
Chain of Serine/threonine-protein kinase SBK1 (Homo sapiens) (Q52WX2 whole entry): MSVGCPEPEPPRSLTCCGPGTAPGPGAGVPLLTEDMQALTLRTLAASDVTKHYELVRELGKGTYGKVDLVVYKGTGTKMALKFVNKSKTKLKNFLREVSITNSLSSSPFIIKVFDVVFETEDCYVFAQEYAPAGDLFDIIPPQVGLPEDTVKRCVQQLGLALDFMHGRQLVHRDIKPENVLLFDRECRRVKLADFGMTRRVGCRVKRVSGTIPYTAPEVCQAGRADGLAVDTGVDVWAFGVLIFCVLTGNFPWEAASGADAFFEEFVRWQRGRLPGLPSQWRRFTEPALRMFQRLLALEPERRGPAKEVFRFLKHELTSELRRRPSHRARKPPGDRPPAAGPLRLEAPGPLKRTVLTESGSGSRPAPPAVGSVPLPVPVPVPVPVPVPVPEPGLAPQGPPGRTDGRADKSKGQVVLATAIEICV

[9] = molecular target: Proto-oncogene tyrosine-protein kinase Src (Homo sapiens, UniProt P12931); assay: Selectivity interaction (ActivX KiNativ screen (ex vivo kinase selectivity in human PBMCs)) EUB0001619a SRC; type: cell-based; conditions: PBMC, at 1 µM
Chain of Proto-oncogene tyrosine-protein kinase Src (P12931 2-536 limits assumed): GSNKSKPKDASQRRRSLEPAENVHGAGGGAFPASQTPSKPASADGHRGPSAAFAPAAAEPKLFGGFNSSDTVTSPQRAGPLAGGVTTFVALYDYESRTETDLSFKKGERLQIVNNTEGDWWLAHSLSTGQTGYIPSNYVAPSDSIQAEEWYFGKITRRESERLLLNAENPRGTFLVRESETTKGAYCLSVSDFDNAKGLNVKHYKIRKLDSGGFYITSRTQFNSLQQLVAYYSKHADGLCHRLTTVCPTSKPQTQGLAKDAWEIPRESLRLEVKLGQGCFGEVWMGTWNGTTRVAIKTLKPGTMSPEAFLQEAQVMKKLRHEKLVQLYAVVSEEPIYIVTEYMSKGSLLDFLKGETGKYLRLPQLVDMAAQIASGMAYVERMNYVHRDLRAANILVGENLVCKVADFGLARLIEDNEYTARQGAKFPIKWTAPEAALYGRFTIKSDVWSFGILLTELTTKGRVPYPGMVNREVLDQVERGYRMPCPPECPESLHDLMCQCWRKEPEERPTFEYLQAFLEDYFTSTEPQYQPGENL

Chain of AP2-associated protein kinase 1 (Q2M2I8 whole entry, looked up): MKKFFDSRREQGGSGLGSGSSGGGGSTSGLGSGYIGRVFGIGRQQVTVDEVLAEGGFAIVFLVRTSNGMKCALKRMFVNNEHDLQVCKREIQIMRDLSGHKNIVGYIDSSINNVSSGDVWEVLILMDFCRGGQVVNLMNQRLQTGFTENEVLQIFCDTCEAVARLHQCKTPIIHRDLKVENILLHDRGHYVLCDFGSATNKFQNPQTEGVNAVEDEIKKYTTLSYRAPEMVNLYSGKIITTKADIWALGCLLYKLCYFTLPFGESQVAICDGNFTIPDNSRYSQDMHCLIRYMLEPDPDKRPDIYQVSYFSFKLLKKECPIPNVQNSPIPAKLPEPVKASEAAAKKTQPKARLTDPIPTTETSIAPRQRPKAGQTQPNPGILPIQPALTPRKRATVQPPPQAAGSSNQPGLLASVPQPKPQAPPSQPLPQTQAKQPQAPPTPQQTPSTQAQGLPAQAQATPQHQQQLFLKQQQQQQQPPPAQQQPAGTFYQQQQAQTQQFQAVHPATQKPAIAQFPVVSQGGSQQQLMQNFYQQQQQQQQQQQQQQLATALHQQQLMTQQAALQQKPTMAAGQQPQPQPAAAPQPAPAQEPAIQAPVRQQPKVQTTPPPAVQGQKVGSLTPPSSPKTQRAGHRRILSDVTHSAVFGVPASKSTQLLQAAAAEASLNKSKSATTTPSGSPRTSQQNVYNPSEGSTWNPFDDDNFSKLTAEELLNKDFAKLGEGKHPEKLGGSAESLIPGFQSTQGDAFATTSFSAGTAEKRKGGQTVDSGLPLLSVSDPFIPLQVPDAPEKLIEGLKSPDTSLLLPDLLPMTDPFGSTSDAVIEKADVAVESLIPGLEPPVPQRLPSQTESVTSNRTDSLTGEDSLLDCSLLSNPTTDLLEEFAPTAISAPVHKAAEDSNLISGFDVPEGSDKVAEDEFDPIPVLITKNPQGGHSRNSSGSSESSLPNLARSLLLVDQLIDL

% of control [1]: 22%
SMILES: Cc1cc(-c2ccnc(Nc3cnn(C)c3)n2)ccc1CNC(=O)N1CC(OC(C)C)C1

% of inhibition [2]: 6.9% | % of inhibition [3]: 6.49%
SMILES: CC[C@@H]1[C@H](F)C(=O)N[C@@H]1COc1nccc2cc(C(N)=O)c(OC)cc12 [ZIMLOVISERTIB]

% of control [4]: 107%
SMILES: CC(=O)Nc1cccc(-n2c(=O)n(C3CC3)c(=O)c3c(Nc4ccc(I)cc4F)n(C)c(=O)c(C)c32)c1

SMILES: Nc1cnc(N2CCc3cc(S(=O)(=O)Nc4c(F)cc(Cl)cc4F)cc(N4CCCC4=O)c32)nc1 [TP-020n]
% of control [5]: 100% | % of control [6]: 100%

SMILES: Cc1cc([C@@H](C)Nc2ccccc2C(=O)O)c2nc(N3CCOCC3)cc(=O)n2c1 [AZD-6482]
% of control [7]: 83%

SMILES: O[C@H]1CC[C@H](Nc2ncc3nc(Nc4c(F)cc(F)cc4F)n([C@H]4CCOC4)c3n2)CC1
% of control [8]: 73%

SMILES: N#Cc1cccc(-c2c[nH]c3ncnc(N4CCOCC4)c23)c1
% of inhibition [9]: 30%
